Assay: method code SF-AS, from Mauleón, D.; Pujol, M.; Rosell, G. (1988). B-Adrenergic antagonists: N-alkyl and N-amidoethyl (arylalkoxy)propanolamines related to propranolol. Eur J Med Chem, 23, 421-426.

logP	Structure (SMILES)
0.63	CC(C)C(=O)NCCNCC(O)COCc1ccccc1 (stereo unspecified)
1.54	CC(C)NCC(O)COCCCc1ccccc1 (stereo unspecified)
0.51	CC(C)C(=O)NCCNCC(O)COCC=Cc1ccccc1 (stereo unspecified)
0.95	CC(C)C(=O)NCCNCC(O)COCCc1ccccc1 (stereo unspecified)
1.25	CC(C)C(=O)NCCNCC(O)COCCCc1ccccc1 (stereo unspecified)
1.24	O=C(Cc1ccccc1)NCCNCC(O)COCCc1ccccc1 (stereo unspecified)
0.48	CC(C)C(=O)NCCNCC(O)COCCOc1ccccc1 (stereo unspecified)
1.14	CC(C)C(=O)NCCNCC(O)COc1ccccc1 (stereo unspecified)

Continued, molecule first:

Structure (SMILES)	logP
CC(C)NCC(O)COCCc1ccccc1 (stereo unspecified)	1.76
CC(C)(C)NCC(O)COCCc1ccccc1 (stereo unspecified)	2.51
CC(C)NCC(O)COCCCC(C)c1ccccc1 (stereo unspecified)	2.95
O=C(Cc1ccccc1)NCCNCC(O)COC1CCCc2ccccc21 (stereo unspecified)	1.68
O=C(Cc1ccccc1)NCCNCC(O)COCCOc1ccccc1 (stereo unspecified)	0.75
CC(C)NCC(O)COCc1ccccc1 (stereo unspecified)	1.62
CC(C)C(=O)NCCNCC(O)COC1CCCc2ccccc21 (stereo unspecified)	1.99
CC(C)NCC(O)COC1CCCc2ccccc21 (stereo unspecified)	3.42
O=C(Cc1ccccc1)NCCNCC(O)COc1ccccc1 (stereo unspecified)	0.63
CC(C)(C)NCC(O)COCc1ccccc1 (stereo unspecified)	1.7
CC(C)(C)NCC(O)COC1CCCc2ccccc21 (stereo unspecified)	3.55
O=C(Cc1ccccc1)NCCNCC(O)COCc1ccccc1 (stereo unspecified)	1.05
CC(C)NCC(O)COC/C=C/c1ccccc1 (stereo unspecified)	2.15
CC(C)(C)NCC(O)COc1ccccc1 (stereo unspecified)	1.5
O=C(Cc1ccccc1)NCCNCC(O)COCC=Cc1ccccc1 (stereo unspecified)	1.76
CC(C)NCC(O)COCCOc1ccccc1 (stereo unspecified)	1.63
CC(CCCOCC(O)CNC(C)(C)C)c1ccccc1 (stereo unspecified)	2.29
CC(C)(C)NCC(O)COCCOc1ccccc1 (stereo unspecified)	2.35

Reference: the SangsterLogP compilation
